Experimental data as given in paper PMC6934184, “Selective DNA-PKcs inhibition extends the therapeutic index of localized radiotherapy and chemotherapy” (The Journal of Clinical Investigation, 2019).

Target: T1, STK17A (DRAK1) (Homo sapiens, UniProt Q9UEE5)
T1 construct: purchased Thermo Fisher Scientific (Life Technologies) SelectScreen
Assay: SelectScreen LanthaScreen
Type: binding
Details: read-out: % displacement
Procedure, shortened: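 NU5455 was profiled across the SelectScreen Broad panel of kinase activity and binding assays. Z'LYTE reactions such as CSF1R ran at apparent Km ATP, while the Adapta CAMK1 assay used ATP listed as 10. Values are given as percent.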

T1 sequence (Q9UEE5 whole entry): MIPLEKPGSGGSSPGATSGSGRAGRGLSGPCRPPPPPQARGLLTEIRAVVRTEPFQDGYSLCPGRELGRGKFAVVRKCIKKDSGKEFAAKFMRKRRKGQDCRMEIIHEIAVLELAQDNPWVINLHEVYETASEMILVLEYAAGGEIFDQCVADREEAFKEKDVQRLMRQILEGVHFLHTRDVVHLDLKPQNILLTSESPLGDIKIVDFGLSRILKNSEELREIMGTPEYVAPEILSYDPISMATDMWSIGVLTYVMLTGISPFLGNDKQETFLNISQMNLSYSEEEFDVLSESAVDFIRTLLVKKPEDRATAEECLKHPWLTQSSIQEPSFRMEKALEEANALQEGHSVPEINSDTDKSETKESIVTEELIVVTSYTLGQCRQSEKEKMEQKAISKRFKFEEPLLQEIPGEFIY

In the case of CN(C(=O)CN1CCOCC1)c1ccc2sc3c(-c4cccc5c(=O)cc(N6CC7CCC(C6)O7)oc45)cccc3c2c1 [NU5455], the inhibition at 1 µM is reported as -6.6%.
